pIC50: −log10 of the molar value.
Biological target: T1, DP receptor (Homo sapiens, UniProt Q13258)
T1 construct: using the human cell line LS174T, which expresses the endogenous DP receptor; endogenous in cells; host or cells: LS174T human cell line
T1 sequence (Q13258 1-359): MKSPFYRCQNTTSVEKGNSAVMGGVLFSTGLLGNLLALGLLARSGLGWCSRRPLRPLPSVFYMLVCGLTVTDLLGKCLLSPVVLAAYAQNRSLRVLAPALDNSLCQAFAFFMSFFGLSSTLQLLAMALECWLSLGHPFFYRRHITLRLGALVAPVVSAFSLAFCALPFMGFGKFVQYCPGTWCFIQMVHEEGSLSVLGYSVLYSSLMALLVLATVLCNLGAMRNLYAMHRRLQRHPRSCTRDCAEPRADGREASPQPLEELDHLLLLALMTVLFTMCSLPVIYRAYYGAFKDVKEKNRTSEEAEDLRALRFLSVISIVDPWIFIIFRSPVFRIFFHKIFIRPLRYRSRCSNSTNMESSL
Experiment: SPA cAMP assay in human LS174 T cells (human DP functional assay)
Type: cell-based
Settings: inhibition of PGD2 (15 nM)-stimulated cAMP, LS174T cells expressing endogenous DP receptor
Description: The inhibitory effects of the compounds according to the invention are assessed in a human DP functional assay. A cAMP assay is employed using the human cell line LS174T, which expresses the endogenous DP receptor. The protocol is similar to that described previously (Wright D H, Ford-Hutchinson A W, Chadee K, Metters K M, The human prostanoid DP receptor stimulates mucin secretion in LS174T cells, Br J Pharmacol. 131(8):1537-45 (2000)).
Protocol for SPA cAMP Assay in Human LS174 T Cells
• PGD2 (Cayman Chemical Cat#12010) • IBMX (Sigma Cat# 5879) • cAMP SPA direct screening assay system (Amersham code RPA 559) • 96-well cell plates (Wallac Cat# 1450-516) • Wallac 1450 Microplate Trilux scintillation counter (PerkinElmer) • Plate sealers • Eppendorf tubes • Dulbecco's Phosphate-Buffered Saline (PBS) (Invitrogen Cat#14040-133) • Distilled water • Vortex • Magnetic stirrer and stirrer bars Reagent Preparation:
All reagents should be allowed to equilibrate to room temperature before reconstitution.
Transfer the contents of the bottle to a 500 mL graduated cylinder by repeated washing with distilled water. Adjust the final volume to 500 mL with distilled water and mix thoroughly.
Dissolve each of the lysis reagents 1 and 2 in 200 mL assay buffer respectively. Leave at room temperature for 20 minutes to dissolve.
Add 30 mL of lysis buffer 2 to the bottle. Gently shake the bottle for 5 minutes.
Add 15 mL of lysis buffer 2 to each vial, and gently mix until the contents are completely dissolved.
Add 14 mL lysis buffer 2 to each vial and gently mix until the contents are completely dissolved.
Preparation of Immunoreagent
• 1) Add equal volumes of tracer, antiserum and SPA anti-rabbit reagent to a bottle, ensuring that a sufficient volume of this mixture is prepared for the desired number of wells (150 μL/well). • 2) Mix thoroughly. • 3) This immunoreagent solution should be freshly prepared before each assay and not re-used. Standard • 1) Add 1 mL lysis buffer 1 and gently mix until contents are completely dissolved. • 2) The final solution contains cAMP at a concentration of 512 pmol/mL. • 3) Label 7 polypropylene or polystyrene tubes, 0.2 pmol, 0.4 pmol, 0.8 pmol, 1.6 pmol, 3.2 pmol, 6.4 pmol and 12.8 pmol. • 4) Pipette 500 μL of lysis buffer 1 into all the tubes. • 5) Into the 12.8 pmol tube pipette 500 μL of stock standard (512 pmol/mL) and mix thoroughly. Transfer 500 μL from 12.8 pmol tube to the 6.4 pmol tube and mix thoroughly. Repeat this doubling dilution successively with the remaining tubes.
6) 50 μL aliquots in duplicate from each serial dilution and the stock standard will give rise to 8 standard levels of cAMP ranging from 0.2-25.6 pmol standard
Add 50 μL of […] IBMX into 100 mL PBS to make a final concentration of 100 μM and sonicate at 30° C. for 20 minutes.
Dissolve 1 mg PGD2 (FW, 352.5) in 284 μL DMSO to make 10 mM stock solution and store at […]. Before each assay, it is freshly prepared. Add 3 μL of 10 mM stock solution to 20 mL DMSO, mix it thoroughly, and transfer 10 mL to 40 mL PBS.
Compound dilution is carried out in Biomex 2000 (Beckman) using Method 1_cAMP DP 11 points.
5 μL of each compound from the 10 mM stock compound plates is transferred to the wells of a 96-well plate respectively as below.
Fill the plate with 45 μL of DMSO except column 7 is filled with 28 μL DMSO. Pipette column 1 thoroughly, and transfer 12 μL into column 7 parallel. Perform 1:10 serial dilution from column 1 to column 6 and from column 7 to column 11 by transfer 5 μL to 45 μL DMSO to make following concentrations:
Fill a new 96-well plate with 247.5 μL of compound dilution buffer. Transfer 2.5 μL of serially diluted compounds from above plate to the new plate (1:100 dilution) as following:
Cell Growth • 1. LS174 T are always grown in MEM (ATCC Cat# 30-2003), 10% FBS (ATCC Cat# 30-2020) and additional 2 mM L-glutamine, at 37° C. and 5% CO2. • 2. Warm 0.05% Trypsin and Versine (Invitrogen Cat# 25300-054) at 37° C. water bath. • 3. […]

Row | SMILES | pIC50
1 | O=C(O)Cc1c(-c2ccc(Cl)c(S(=O)(=O)NC3CCCCC3)c2)[nH]c2ccccc12 [Example 1(a), [2-(4-Chloro-3-cyclohexylsulfamoyl-phenyl)-1H-indol-3-yl]-acetic acid] | 8.66
2 | O=C(O)Cc1c(-c2ccc(Cl)c(S(=O)(=O)NC3CC4CCC3C4)c2)[nH]c2ccccc12 (stereo not drawn) [Example 1(b), {2-[3-(Bicyclo[2.2.1]hept-2-ylsulfamoyl)-4-chloro-phenyl]-1H-indol-3-yl}-acetic acid] | 8.52
3 | CCCCCCNS(=O)(=O)c1cc(-c2[nH]c3ccccc3c2CC(=O)O)ccc1Cl [Example 1(c), [2-(4-Chloro-3-hexylsulfamoyl-phenyl)-1H-indol-3-yl]-acetic acid] | 7.51
4 | O=C(O)Cc1c(-c2ccc(Cl)c(S(=O)(=O)NC3Cc4ccccc4C3)c2)[nH]c2ccccc12 [Example 1(d), {2-[4-Chloro-3-(indan-2-ylsulfamoyl)-phenyl]-1H-indol-3-yl}-acetic acid] | 8.02
5 | CC(C)NS(=O)(=O)c1cc(-c2[nH]c3ccccc3c2CC(=O)O)ccc1Cl [Example 1(g), [2-(4-Chloro-3-isopropylsulfamoyl-phenyl)-1H-indol-3-yl]-acetic acid] | 7.31
6 | O=C(O)Cc1c(-c2ccc(Cl)c(S(=O)(=O)NCCC3CCCCC3)c2)[nH]c2ccccc12 [Example 1(h), {2-[4-Chloro-3-(2-cyclohexyl-ethylsulfamoyl)-phenyl]-1H-indol-3-yl}-acetic acid] | 7.46
7 | O=C(O)Cc1c(-c2ccc(Cl)c(S(=O)(=O)NCC34CC5CC(CC(C5)C3)C4)c2)[nH]c2ccccc12 [Example 1(m), (2-[4-Chloro-3-[(tricyclo[3.3.1.13.7]decan-1-ylmethyl)-sulfamoyl]-phenyl]-1H-indol-3-yl)-acetic acid] | 8.07
8 | O=C(O)Cc1c(-c2ccc(Cl)c(S(=O)(=O)NC3CCOCC3)c2)[nH]c2ccccc12 [Example 1(o), {2-[4-Chloro-3-(tetrahydro-pyran-4-ylsulfamoyl)-phenyl]-1H-indol-3-yl}-acetic acid] | 7.28
9 | O=C(O)Cc1c(-c2ccc(Cl)c(S(=O)(=O)N3CCCCC3)c2)[nH]c2ccccc12 [Example 1(p), {2-[4-Chloro-3-(piperidine-1-sulfonyl)-phenyl]-1H-indol-3-yl}-acetic acid] | 6.17
10 | CC(C)(C)c1ccc2[nH]c(-c3ccc(Cl)c(S(=O)(=O)NC4CCCCC4)c3)c(CC(=O)O)c2c1 [Example 1(s), [5-tert-Butyl-2-(4-chloro-3-cyclohexylsulfamoyl-phenyl)-1H-indol-3-yl]-acetic acid] | 8.40
11 | O=C(O)Cc1c(-c2ccc(Cl)c(S(=O)(=O)NC3CCCCC3)c2)[nH]c2ccc(OC(F)(F)F)cc12 [Example 1(v), [2-(4-Chloro-3-cyclohexylsulfamoyl-phenyl)-5-trifluoromethoxy-1H-indol-3-yl]-acetic acid] | 8.38
12 | CN(C1CCCCC1)S(=O)(=O)c1cc(-c2[nH]c3ccccc3c2CC(=O)O)ccc1Cl [Example 1(x), {2-[4-Chloro-3-(cyclohexyl-methyl-sulfamoyl)-phenyl]-1H-indol-3-yl}-acetic acid] | 6.46
13 | O=C(O)Cc1c(-c2ccc(Cl)c(S(=O)(=O)NCc3ccc(C(F)(F)F)cc3)c2)[nH]c2ccccc12 [Example 1(y), {2-[4-Chloro-3-(4-trifluoromethyl-benzylsulfamoyl)-phenyl]-1H-indol-3-yl}-acetic acid] | 7.72
14 | Cn1c(-c2ccc(Cl)c(S(=O)(=O)NC3CCCCC3)c2)c(CC(=O)O)c2ccccc21 [Example 2(a), [2-(4-Chloro-3-cyclohexylsulfamoyl-phenyl)-1-methyl-1H-indol-3-yl]-acetic acid] | 7.28
15 | O=C(O)Cc1c(-c2ccc(Cl)c(S(=O)(=O)NC3CCCCC3)c2)n(Cc2ccccc2)c2ccccc12 [Example 2(b), [1-Benzyl-2-(4-chloro-3-cyclohexylsulfamoyl-phenyl)-1H-indol-3-yl]-acetic acid] | 7.38
